In ChEMBL document CHEMBL1155333, “Amine substituted N-(1H-benzimidazol-2ylmethyl)-5,6,7,8-tetrahydro-8-quinolinamines as CXCR4 antagonists with potent activity against HIV-1” (Bioorg Med Chem Lett, 2009):
pIC50: −log10 of the molar value. The source made the active and inactive calls. No cut-off for these calls is given here.

Experiments:
[1] = target: C-X-C chemokine receptor type 4 (Homo sapiens) (UniProt P61073); experiment: Antagonist activity at CXCR4 by noncompetitive binding assay
[2] = tested on: Human immunodeficiency virus 1; experiment: Antiviral activity against HIV1 3B infected in human HOS cells; format: functional, organism-based; settings: Human immunodeficiency virus 1, 3B
[3] = Cytotoxicity against human HOS cells; format: cell-based
[4] = tested on: Human immunodeficiency virus 1; experiment: Ratio of AMD070 IC50 to compound IC50 for HIV1 3B infected in human HOS cells; format: functional

Sequence of C-X-C chemokine receptor type 4 (Homo sapiens) (P61073 whole entry): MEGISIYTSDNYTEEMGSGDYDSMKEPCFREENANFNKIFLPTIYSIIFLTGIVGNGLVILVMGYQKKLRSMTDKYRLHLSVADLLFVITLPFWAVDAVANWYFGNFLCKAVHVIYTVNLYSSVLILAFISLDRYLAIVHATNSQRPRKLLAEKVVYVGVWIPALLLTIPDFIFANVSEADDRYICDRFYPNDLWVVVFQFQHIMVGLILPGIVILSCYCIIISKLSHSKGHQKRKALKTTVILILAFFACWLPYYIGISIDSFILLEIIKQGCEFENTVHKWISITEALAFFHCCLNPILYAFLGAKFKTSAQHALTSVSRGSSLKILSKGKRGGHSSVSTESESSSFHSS

Row | Structure (SMILES) | Activity [1] | pIC50 [2] | CC50 [3] [nM] | Ratio IC50 [4]
1 | CN1CCN(C(=O)c2cccc3nc(CN(C)C4CCCc5cccnc54)[nH]c23)CC1 (stereo not given) | Active | 7.48 |  | 
2 | CN(Cc1nc2cccc(CN3CCNCC3)c2[nH]1)C1CCCc2cccnc21 (stereo not given) | Active | 7.89 |  | 
3 | CN(Cc1nc2ccccc2n1CCCCN)C1CCCc2cccnc21 (stereo not given) | Active | 6.84 | 2900 | 
4 | CN(Cc1nc2cccc(C(=O)N3CCNCC3)c2[nH]1)C1CCCc2cccnc21 (stereo not given) | Active | 7.34 | > 20000 | 
5 | NCCCCN(Cc1nc2ccccc2[nH]1)[C@H]1CCCc2cccnc21 [MAVORIXAFOR] | Active | 8.00 | > 10000 | 
6 | CN(Cc1nc2ccccc2n1CCCCCN)C1CCCc2cccnc21 (stereo not given) | Active | 6.64 | 4500 | 
7 | CN(Cc1nc2c(CCCN3CCCCC3)cccc2[nH]1)C1CCCc2cccnc21 (stereo not given) |  |  | 8700 | 
8 | CN(Cc1nc2cccc(CCCN3CCCCC3)c2[nH]1)C1CCCc2cccnc21 (stereo not given) | Active | 7.60 |  | 
9 | CN1CCN(c2cccc3nc(CN(C)[C@@H]4CCCc5cccnc54)[nH]c23)CC1 | Active | 8.16 | 12300 | 
10 | CN(Cc1nc2cccc(CN)c2[nH]1)C1CCCc2cccnc21 (stereo not given) | Active | 5.89 | > 20000 | 
11 | CN(Cc1nc2cccc(CCCN)c2[nH]1)C1CCCc2cccnc21 (stereo not given) | Active | 7.62 |  | 
12 | CN(Cc1nc2cccc(CCCN3CCCC3)c2[nH]1)C1CCCc2cccnc21 (stereo not given) | Active | 7.64 |  | 
13 | CN(Cc1nc2c(CN3CCNCC3)cccc2[nH]1)C1CCCc2cccnc21 (stereo not given) |  |  | 12000 | 
14 | CN(Cc1nc2ccccc2n1CCCNC(=O)C(F)(F)F)C1CCCc2cccnc21 (stereo not given) | Active | 6.61 | 10400 | 
15 | CN1CCN(c2cccc3nc(CN(C)[C@H]4CCCc5cccnc54)[nH]c23)CC1 | Active | 9.22 | 12500 | 
16 | CN(Cc1nc2cccc(C(=O)NCCN)c2[nH]1)C1CCCc2cccnc21 (stereo not given) | Active | 7.57 |  | 
17 | CN(Cc1nc2cccc(CNCCc3cnc[nH]3)c2[nH]1)C1CCCc2cccnc21 (stereo not given) | Active | 7.39 |  | 
18 | CN(Cc1nc2ccccc2[nH]1)C1CCCc2cccnc21 (stereo not given) | Active | 5.87 | 5300 | 
19 | CN(Cc1nc2cccc(C(=O)NCCc3cnc[nH]3)c2[nH]1)C1CCCc2cccnc21 (stereo not given) | Active | 7.72 | > 10000 | 

Row | Structure (SMILES) | Activity [1] | pIC50 [2] | CC50 [3] [nM] | Ratio IC50 [4]
20 | CN(Cc1nc2ccccc2n1CCCNC(=N)N)C1CCCc2cccnc21 (stereo not given) | Active | 7.59 | > 20000 | 
21 | CN(Cc1nc2c(CCCN)cccc2[nH]1)C1CCCc2cccnc21 (stereo not given) |  |  | 10000 | 
22 | CN(Cc1nc2c(C(=O)NCCN)cccc2[nH]1)C1CCCc2cccnc21 (stereo not given) |  |  | > 10000 | 
23 | CN(Cc1nc2cccc(C(=O)NCCCN)c2[nH]1)C1CCCc2cccnc21 (stereo not given) | Active | 6.87 | > 20000 | 
24 | CN(C)CCCc1cccc2nc(CN(C)C3CCCc4cccnc43)[nH]c12 (stereo not given) | Active | 7.66 |  | 
25 | CN(Cc1nc2cccc(CNCCN)c2[nH]1)C1CCCc2cccnc21 (stereo not given) | Active | 6.27 | > 20000 | 
26 | CN(Cc1nc2c(CNCCc3c[nH]cn3)cccc2[nH]1)C1CCCc2cccnc21 (stereo not given) |  |  | > 20000 | 
27 | CN(Cc1nc2cccc(N3CCN(C(=O)OC(C)(C)C)CC3)c2[nH]1)C1CCCc2cccnc21 (stereo not given) | Active | 6.57 | > 10000 | 
28 | CN(Cc1nc2ccccc2n1CCN)C1CCCc2cccnc21 (stereo not given) | Active | 6.71 | > 20000 | 
29 | CN1CCN(c2cccc3nc(CN(C)C4CCCc5cccnc54)[nH]c23)CC1 (racemic) | Active | 8.70 | 14000 | 10
30 | CN(Cc1nc2c(N3CCNCC3)cccc2[nH]1)C1CCCc2cccnc21 (stereo not given) |  |  | > 20000 | 
31 | CN(Cc1nc2c(CCCN3CCCC3)cccc2[nH]1)C1CCCc2cccnc21 (stereo not given) |  |  | 8200 | 
32 | CN(Cc1nc2cccc(N3CCNCC3)c2[nH]1)C1CCCc2cccnc21 (stereo not given) | Active | 8.22 |  | 
33 | CN(Cc1nc2cccc(C(=O)NCCCCN)c2[nH]1)C1CCCc2cccnc21 (stereo not given) | Active | 6.40 | > 20000 | 
34 | CN(Cc1nc2ccccc2n1CCCN)C1CCCc2cccnc21 (stereo not given) | Active | 7.36 | > 20000 | 
35 | CN1CCN(C(=O)c2cccc3[nH]c(CN(C)C4CCCc5cccnc54)nc23)CC1 (stereo not given) |  |  | > 10000 | 
36 | CN(C)CCCn1c(CN(C)C2CCCc3cccnc32)nc2ccccc21 (stereo not given) | Active | 7.77 | 16800 | 
37 | CN(C)CCCc1cccc2[nH]c(CN(C)C3CCCc4cccnc43)nc12 (stereo not given) |  |  | 7500 | 
